The source of these data is PubChem BioAssay AID1508612.

A short description of this data set: passive permeability, PAMPA, ADME assay (AID 1508612). The conditions noted are these: pH 7.4, 30.0 min, 50.0 µM.

`COc1ccc(NC(=O)c2[nH]c(C)c(C(C)=O)c2C)cc1S(=O)(=O)Nc1ccc(C#N)cc1` showed an apparent permeability (Papp) of 35.7 ×10⁻⁶ cm/s.

Compound `CCCSc1nc(N[C@@H]2C[C@H]2c2ccc(F)c(F)c2)c2nnn([C@@H]3C[C@H](OCCO)[C@@H](O)[C@H]3O)c2n1` yielded an apparent permeability coefficient (Papp) of 776 ×10⁻⁶ cm/s.

Compound `Cc1cc(C)nc(NC(=S)N2CCN(Cc3ccc(C(F)(F)F)cc3)CC2)c1` displayed a Papp of more than 1000 ×10⁻⁶ cm/s.

As for `COc1cc(C2c3cc(O)c(OC)cc3CC3C(=O)OCC32)ccc1O` (configuration not stated), the Papp stood at 129 ×10⁻⁶ cm/s.

Compound `O=C(Nc1ccc(C(=O)Nc2nccs2)cc1)c1ccc2ccccc2c1` displayed a Papp of more than 1000 ×10⁻⁶ cm/s.

Regarding `CC1=C(C(=O)Nc2ccccc2C)C(c2ccccc2Br)N=C(Nc2nc3ccccc3o2)N1` (configuration not stated), the Papp came to 390 ×10⁻⁶ cm/s.

As for `Clc1ccc2ncc(-c3cccc(NC4CCNC4)n3)n2c1` (configuration not stated), the apparent permeability (Papp) was determined as 332 ×10⁻⁶ cm/s.

Take `Cc1ccc(Nc2nc(C)c(NC(=O)c3ccc(C)cc3)c(Nc3ccc(C)cc3)n2)cc1`: the apparent permeability coefficient (Papp) stood at 291 ×10⁻⁶ cm/s.

Consider `Fc1cc(Nc2nc(-c3ccncc3)nc3ccccc23)ccc1-c1cccc(C(F)(F)F)c1`, for which the Papp was determined as 16.8 ×10⁻⁶ cm/s.

`CN1CCN(C(=O)Cc2c[nH]c3ncc(-c4ccccc4Oc4ccccc4)cc23)CC1` had a Papp of more than 1000 ×10⁻⁶ cm/s.

The compound `O=C1Nc2ccccc2/C1=C\c1ccc(O)cc1` registered a Papp of 755 ×10⁻⁶ cm/s.

The compound `CCOc1ccc(CCNC(=O)c2cccc(C(=O)c3ccccc3)c2)cc1OCC` yielded a Papp of more than 1000 ×10⁻⁶ cm/s.

In turn, `CC(=O)c1c(C)[nH]c(C(=O)Nc2cccc([S+](=O)([O-])N3CC[C@@H](F)C3)c2)c1C` displayed a Papp of 199 ×10⁻⁶ cm/s.

For the compound `Cc1ccccc1C(=O)N1CCc2cc(-c3nc(NC(=O)Cc4ccc5c(c4)OCCO5)sc3C)ccc21`, the apparent permeability (Papp) stood at 761 ×10⁻⁶ cm/s.

In turn, `O=S(=O)(Nc1cccc(C(F)(F)F)c1)c1ccc(NS(=O)(=O)c2ccc3c(c2)OCCO3)cc1` came in with a Papp of 668 ×10⁻⁶ cm/s.

The compound `NC(=O)C1CCN(c2nc(-c3ccccc3C(F)(F)F)cs2)CC1` displayed a Papp of 544 ×10⁻⁶ cm/s. This Papp and that of the compound before are within 1.5-fold of each other.

`O=C(Cc1ccc(Cl)cc1)Nc1cnccc1C(=O)O` came in with an apparent permeability coefficient (Papp) of 7 ×10⁻⁶ cm/s. Compared with the last compound, the Papp is about 78-fold lower.

Turning to `CC1(C)CC2CC(C)(CN2S(=O)(=O)c2ccc(C(=O)Nc3ccc(Cl)cc3)cc2)C1` (configuration not stated), the Papp is more than 1000 ×10⁻⁶ cm/s.

Regarding `CC[C@H](Nc1ncnc2nc[nH]c12)c1nc2cccc(F)c2c(=O)n1-c1ccccc1`, the Papp was determined as 169 ×10⁻⁶ cm/s.

`CC(C)(N)C(=O)N[C@H](COCc1ccccc1)C(=O)N1CCC2(CC1)CN(S(C)(=O)=O)c1ccccc12`: the Papp is 819 ×10⁻⁶ cm/s.

In the case of `COC(=O)c1ccc(NS(=O)(=O)c2c(C)nc3sccn3c2=O)cc1`, the Papp stood at 333 ×10⁻⁶ cm/s.

`COc1cccc(CNc2ccc([S+](=O)([O-])Nc3cc4ccccc4s3)cc2)c1O`: the Papp was determined as 888 ×10⁻⁶ cm/s. Against the preceding compound, the Papp is about 2.7-fold higher.

In turn, `CCCCNC(=O)CN1CCN(c2ncc(NC(=O)c3ccc(Cl)cc3)cc2C(=O)O)CC1` came in with an apparent permeability coefficient (Papp) of less than 1 ×10⁻⁶ cm/s.

Take `COc1ccc(NC(=O)c2cccnc2C)cc1S(=O)(=O)Nc1ccc(Br)cc1`: the Papp is 522 ×10⁻⁶ cm/s.

Take `Cc1ccc(NS(=O)(=O)c2c(C)[nH]c(C)c2C(=O)N2CCCC2)cc1Cl`: the apparent permeability (Papp) turned out to be 387 ×10⁻⁶ cm/s.

Take `CC(=O)c1c(C)[nH]c(C(=O)Nc2cccc([S+](=O)([O-])Nc3cccnc3)c2)c1C`: the apparent permeability coefficient (Papp) came out at 16.5 ×10⁻⁶ cm/s. This Papp is about 23-fold lower than that of the compound before.

`CCC(CC)C(=O)NC[C@@H]1C=C(C)[C@H](Cc2nc3c(C)cccc3[nH]2)C[C@H]1C(C)C` came in with a Papp of more than 1000 ×10⁻⁶ cm/s.

Turning to `COC(=O)c1ccccc1C(=O)Nc1nc(-c2ccccc2)cs1`, the Papp stood at 896 ×10⁻⁶ cm/s.

Regarding `NC(=O)C1CCN(c2nc(-c3ccc4c(c3)OCCCO4)cs2)CC1`, the Papp is 629 ×10⁻⁶ cm/s. This Papp and that of the compound before are within 1.5-fold of each other.

`CC(C)(C)c1ccc(C(=O)N2CC(=O)Nc3ccc(F)cc3C2c2ccc(F)cc2)cc1` (configuration not stated): the apparent permeability (Papp) was more than 1000 ×10⁻⁶ cm/s.

Compound `Cn1nnnc1Sc1ncnc2sccc12` returned a Papp of 67.6 ×10⁻⁶ cm/s.

As for `CC(C)c1ccccc1-c1ncc(F)c(NCc2ccc(-n3ccnn3)cc2)n1`, the Papp was more than 1000 ×10⁻⁶ cm/s.

For the compound `Cn1cnc2c(F)c(Nc3ccc(Br)cc3Cl)c(C(=O)NOCCO)cc21`, the Papp was determined as 131 ×10⁻⁶ cm/s.

`COc1ccc(-c2[nH]nc3ncc(-c4ccc(CO)cc4)nc23)cc1F`: the apparent permeability (Papp) worked out at 353 ×10⁻⁶ cm/s.

The compound `O=S(=O)(Nc1nccs1)c1ccc(NCc2cccc(O)c2)cc1` showed a Papp of 1.15 ×10⁻⁶ cm/s.

Regarding `COc1ccc(-n2nc(C3CCCN(C(=O)c4cccc(OC)c4)C3)[nH]c2=O)cc1` (configuration not stated), the Papp was found to be 436 ×10⁻⁶ cm/s. This Papp is about 380-fold higher than that of the compound before.

For `Oc1ccc(CNc2ccccc2F)c2cccnc12`, the Papp was determined as 34 ×10⁻⁶ cm/s.

Take `Cc1cccc(-c2cc(NC(=O)c3ccccc3C)n(-c3ccccc3)n2)c1`: the Papp is 657 ×10⁻⁶ cm/s. This Papp lies about 19-fold higher than the previous one.

`Cc1nc(N)nc2ccccc12`: the Papp came to 69.7 ×10⁻⁶ cm/s.

In the case of `O=C(c1cnc(N2CCCCC2)c2ccccc12)N1CCN(c2ccc(Cl)cc2)CC1`, the apparent permeability coefficient (Papp) was more than 1000 ×10⁻⁶ cm/s.

Consider `Cc1ccc(Nc2nc(-c3ccncc3)nc3ccccc23)cc1F`, for which the Papp was found to be 15.5 ×10⁻⁶ cm/s.

In turn, `Cc1ccc(NC(=O)NCC2CCN(Cc3cccc(Cl)c3)CC2)cc1Cl` came in with an apparent permeability (Papp) of 746 ×10⁻⁶ cm/s. This Papp is about 48-fold higher than that of the compound before.

`CCOc1ccc(CCNC(=O)c2cc3cnccc3n2Cc2cccc(C)n2)cc1OCC` came in with an apparent permeability (Papp) of 7.02 ×10⁻⁶ cm/s.

For the compound `O=C1CCCC2=C1C(C1CCCCC1Cl)N=C(NC1NC3CCCCC3S1)N2` (configuration not stated), the Papp came out at 161 ×10⁻⁶ cm/s.

With `O=C(COc1ccccc1)NCC(c1cccs1)S(=O)(=O)c1ccc(Cl)cc1` (configuration not stated), the apparent permeability (Papp) came out at 592 ×10⁻⁶ cm/s.

As to `Cc1cccc(Nc2nc(NCc3ccco3)c3ccccc3n2)c1`, the Papp came to 730 ×10⁻⁶ cm/s.

`O=C1CCCC2=C1C(c1[nH]ncc1Cl)N=C(Nc1nc3ccccc3o1)N2` (configuration not stated) displayed an apparent permeability (Papp) of 718 ×10⁻⁶ cm/s.
